{
  "source": "patent US20230020507A1",
  "about": "“COMPOUND AND USE THEREOF IN TREATING AUTOIMMUNE DISEASES” (PARENCHYMA BIOTECH INC., priority 2019, published 2023)",
  "key": {"[1]": {"tested_on": "Foxp3+ regulatory T cells", "experiment": "In vitro regulatory T cell (Foxp3+ Treg) production from human peripheral blood CD4 T cells", "assay_type": "cell-based", "settings": "anti-CD3/anti-CD28, TGFβ-1, IL-2, 2.5 μM, 7 days", "description": "Human peripheral blood (AllCells) and phosphate buffered saline (PBS) were mixed in a ratio of 1:1 to prepare a mixture, followed by allowing the mixture to slowly rise so as not to be mixed into the upper layer of Histopaque (Sigma). After centrifugation at 350 g for 20 minutes, only the monocyte layer in the middle layer was collected and washed with HBSS (Hanks' Balanced Salt Solution, Gibco®). After washing with MACS buffer (Miltenyi Biotec) once more to obtain T-cells, positive selection (autoMACS seperator, Miltenyi Biotec) was performed with CD4 Microbeads (Miltenyi Biotec). The T-cells collected by the above method were prepared by resuspending the cells in RPMI-fetal bovine serum (FBS) 10%+2-ME (mercaptoethanol) medium at 5×10^5/ml. For T-cell activation, 10 μg/ml anti-CD3 (eBioscience™) was dispensed by 150 μl into a 48-well plate, reacted in a cell incubator (37° C., 5% CO2 incubator) for 3 hours, and washed with phosphate buffered saline to prepare the plate. 250 μl of resuspended T-cells was dispensed onto the prepared plate, and each well was treated with 2 μg/ml of anti-CD28 (eBioscience™), 5 ng/ml of TGFβ-1 (R&D systems), and 50 U/ml of IL-2 (Miltenyi Biotec). Each 5 μl of compounds at a concentration of 2.5 μM diluted in RPMI+2ME medium was used for treatment, followed by culturing the same in a cell incubator (37° C., 5% CO2 incubator) for 7 days. As a control, 5 μl of 0.05% dimethylsulfoxide (DMSO)/RPMI medium was used for treatment. After 7 days, in order to confirm effects of producing regulatory T cells, the cultured cells were recovered to determine the presence of Foxp3 protein.\nThe recovered cells were placed in a 5 ml FACS tube (BD Falcon) and washed with 1 ml of phosphate buffered saline. The cells were resuspended in 0.1 ml of FACS buffer (0.1% NaN3, 1% FBS) and treated with 1 μg of human immunoglobulin G (Human IgG, Sigma) to prevent non-specific binding of the antibody. After reacting at 4° C. for 15 minutes, the cells were washed with FACS buffer. Then, 1 ml of Fixation/Permeabilization solution (eBioscience™) was added to the FACS tube containing each sample, followed by reaction at 4° C. for 1 hour. Thereafter, the product was washed twice with a Permeabilization buffer (eBioscience™). Then, 0.25 μg of Foxp3 monoclonal antibody (eBioscience™) was used for treatment, followed by staining the sample for 4 to 30 minutes. The cells were washed twice with the permeabilization buffer, suspended in 0.3 ml of FACS buffer, and measured by flow cytometry."}, "[2]": {"tested_on": "IFN-γ, IL-17A, IL-1β, IL-10 and Foxp3 expression in spinal cord lesions", "experiment": "mRNA expression of inflammatory and immunomodulatory factors in spinal cord of EAE mice (real-time PCR)", "assay_type": "in vivo, mouse", "settings": "20 mg/kg i.p., 42nd day, compared to solvent control", "text": "On the 42nd day of the experiment, the spinal cord of the mouse was excised to prepare an mRNA sample. In order to extract mRNA, the spinal cord tissue was ground with a homogenizer to obtain a homogeneous suspension. […] Then, cDNA was synthesized from the isolated RNA by reverse transcription, and the expression of inflammatory cytokines was investigated through real-time polymerase chain reaction (PCR) using iQ SYBR-Green Supermix (Bio-rad) in the CFX96 (Bio-rad) detection system. Relative values of the enzyme expression levels were compared by the ΔΔct method using GAPDH as a control enzyme. Herein, one (1) fold was set using the WT mouse spinal cord as a control.\nThe real-time polymerase chain reaction was implemented under the conditions of cycles at an annealing temperature of 58° C., and the following primer sequences were used."}},
  "data": [
    {"smiles": "O=C(Cc1c[nH]c2ccc(Cl)cc12)Nc1ccc(Cl)c(F)n1", "note": "[Compound 26, 2-(5-chloro-1H-indol-3-yl)-N-(5-chloro-6-fluoropyridin-2-yl)acetamide]", "values": [
      {"measurement": "generation of Foxp3+ regulatory T cells", "setting": "[1]", "result": "promoted"},
      {"measurement": "expression level of Foxp3 in spinal cord lesions", "setting": "[2]", "result": "significantly increased"},
      {"measurement": "expression level of IFN-γ in the spinal cord lesion", "setting": "[2]", "result": "significantly reduced"},
      {"measurement": "expression level of IL-1β in the spinal cord lesion", "setting": "[2]", "result": "significantly reduced"},
      {"measurement": "expression level of IL-10 in spinal cord lesions", "setting": "[2]", "result": "significantly increased"},
      {"measurement": "expression level of IL-17A in the spinal cord lesion", "setting": "[2]", "result": "significantly reduced"}
    ]}
  ]
}
